ChEMBL document CHEMBL1201862, “PubChem BioAssay data set” (2004)
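Exposure lasted 48 hours, with cells grown in 96-well plates and compounds tested at five concentrations. The concentration for 50% growth inhibition is given as GI50.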 Activity calls are given as the source filed them. No stated cut-off is given here; in the data, active = GI50 up to about 1.1 µM and inactive = higher.

Key:
Assay in all cases: inhibition of tumour cell growth, NCI panel, 48 h
[1] = test system: 786-0
[2] = test system: A498
[3] = test system: A549
[4] = test system: ACHN
[5] = test system: BT-549
[6] = test system: CAKI-1
[7] = test system: CCRF-CEM
[8] = test system: COLO 205
[9] = test system: DU-145
[10] = test system: EKVX
[11] = test system: HCC 2998
[12] = test system: HCT-116
[13] = test system: HCT-15
[14] = test system: HL-60
[15] = test system: HOP-62
[16] = test system: HOP-92
[17] = test system: HT-29
[18] = test system: Hs-578T
[19] = test system: IGROV-1
[20] = test system: K562
[21] = test system: KM12
[22] = test system: LOX IMVI
[23] = test system: M14
[24] = test system: MCF7
[25] = test system: MDA-MB-231
[26] = test system: MDA-MB-435
[27] = test system: MDA-N
[28] = test system: MOLT-4
[29] = test system: Malme-3M
[30] = test system: NCI-H226
[31] = test system: NCI-H23
[32] = test system: NCI-H460
[33] = test system: NCI-H522
[34] = test system: NCI/ADR-RES
[35] = test system: OVCAR-3
[36] = test system: OVCAR-4
[37] = test system: OVCAR-5
[38] = test system: OVCAR-8
[39] = test system: PC-3
[40] = test system: RPMI-8226
[41] = test system: RXF 393
[42] = test system: SF-268
[43] = test system: SF-295
[44] = test system: SF-539
[45] = test system: SK-MEL-28
[46] = test system: SK-MEL-2
[47] = test system: SK-MEL-5
[48] = test system: SK-OV-3
[49] = test system: SN12C
[50] = test system: SNB-19
[51] = test system: SNB-75
[52] = test system: SR
[53] = test system: SW-620
[54] = test system: T47D
[55] = test system: TK-10
[56] = test system: U-251
[57] = test system: UACC-257
[58] = test system: UACC-62
[59] = test system: UO-31

S=C(N/N=C(/c1ccccc1)c1ccccn1)N(Cc1ccccn1)Cc1ccccn1
GI50 [1]: 0.475 µM (active)
GI50 [2]: 0.521 µM (active)
GI50 [3]: 0.435 µM (active)
GI50 [4]: 0.0418 µM (active)
GI50 [5]: 0.207 µM (active)
GI50 [6]: 0.0822 µM (active)
GI50 [7]: < 0.01 µM (active)
GI50 [8]: < 0.0157 µM (active)
GI50 [9]: 0.564 µM (active)
GI50 [10]: 0.0608 µM (active)
GI50 [11]: 1.63 µM (inactive)
GI50 [12]: < 0.01 µM (active)
GI50 [13]: 0.102 µM
GI50 [14]: < 0.0443 µM (active)
GI50 [15]: 0.964 µM (active)
GI50 [16]: 0.174 µM (active)
GI50 [17]: < 0.01 µM (active)
GI50 [18]: 1.41 µM (inactive)
GI50 [19]: < 0.01 µM (active)
GI50 [20]: < 0.01 µM (active)
GI50 [21]: 0.432 µM (active)
GI50 [22]: 0.0908 µM (active)
GI50 [23]: 0.0323 µM (active)
GI50 [24]: < 0.01 µM (active)
GI50 [25]: < 0.0121 µM (active)
GI50 [26]: 0.841 µM (active)
GI50 [27]: 1.31 µM (inactive)
GI50 [28]: < 0.0302 µM (active)
GI50 [29]: 0.0655 µM (active)
GI50 [30]: < 0.0488 µM (active)
GI50 [31]: 0.108 µM (active)
GI50 [32]: 0.116 µM (active)
GI50 [33]: < 0.0247 µM (active)
GI50 [34]: 0.0838 µM (active)
GI50 [35]: 0.183 µM (active)
GI50 [36]: 0.507 µM (active)
GI50 [37]: 0.427 µM (active)
GI50 [38]: < 0.01 µM (active)
GI50 [39]: 0.0541 µM (active)
GI50 [40]: < 0.0302 µM (active)
GI50 [41]: 1 µM (active)
GI50 [42]: 0.196 µM (active)
GI50 [43]: 0.367 µM (active)
GI50 [44]: 0.119 µM (active)
GI50 [45]: 1.05 µM (active)
GI50 [46]: 1.28 µM (inactive)
GI50 [47]: 0.358 µM (active)
GI50 [48]: 0.472 µM (active)
GI50 [49]: < 0.01 µM (active)
GI50 [50]: 0.444 µM (active)
GI50 [51]: 0.708 µM (active)
GI50 [52]: 0.906 µM (active)
GI50 [53]: < 0.0277 µM (active)
GI50 [54]: < 0.0177 µM (active)
GI50 [55]: 0.236 µM (active)
GI50 [56]: < 0.016 µM (active)
GI50 [57]: 0.0425 µM (active)
GI50 [58]: 0.338 µM (active)
GI50 [59]: 0.356 µM (active)

CC(C)(C)C1=CC(=C2C=Cc3ccccc3O2)C=C(C(C)(C)C)C1=O
GI50 [1]: 2.67 µM (inactive)
GI50 [2]: 4.39 µM (inactive)
GI50 [3]: 4.16 µM (inactive)
GI50 [4]: 5.51 µM (inactive)
GI50 [5]: 6.59 µM (inactive)
GI50 [6]: 3.07 µM (inactive)
GI50 [7]: 2.09 µM (inactive)
GI50 [8]: 2.18 µM (inactive)
GI50 [9]: 4.71 µM (inactive)
GI50 [10]: 6.59 µM (inactive)
GI50 [11]: 1.61 µM (inactive)
GI50 [12]: 2.76 µM (inactive)
GI50 [13]: 3.13 µM
GI50 [14]: 1.9 µM (inactive)
GI50 [15]: 6.04 µM (inactive)
GI50 [16]: 13.9 µM (inactive)
GI50 [17]: 3.76 µM (inactive)
GI50 [18]: 7 µM (inactive)
GI50 [19]: 6.53 µM (inactive)
GI50 [20]: 3.94 µM (inactive)
GI50 [21]: 2.47 µM (inactive)
GI50 [22]: 3.06 µM (inactive)
GI50 [23]: 3.55 µM (inactive)
GI50 [24]: 1.86 µM (inactive)
GI50 [25]: 3.41 µM (inactive)
GI50 [26]: 1.75 µM (inactive)
GI50 [27]: 2.31 µM (inactive)
GI50 [28]: 1.73 µM (inactive)
GI50 [29]: 3.81 µM (inactive)
GI50 [30]: 8.79 µM (inactive)
GI50 [31]: 4.56 µM (inactive)
GI50 [32]: 1.6 µM (inactive)
GI50 [33]: 3.53 µM (inactive)
GI50 [34]: 3.81 µM (inactive)
GI50 [35]: 2.23 µM (inactive)
GI50 [36]: 2.41 µM (inactive)
GI50 [37]: 6.7 µM (inactive)
GI50 [38]: 6.37 µM (inactive)
GI50 [39]: 4.09 µM (inactive)
GI50 [40]: 2.15 µM (inactive)
GI50 [41]: 2.25 µM (inactive)
GI50 [42]: 5.55 µM (inactive)
GI50 [43]: 5.33 µM (inactive)
GI50 [44]: 7.05 µM (inactive)
GI50 [45]: 6.25 µM (inactive)
GI50 [46]: 2.13 µM (inactive)
GI50 [47]: 3.81 µM (inactive)
GI50 [48]: 13.6 µM (inactive)
GI50 [49]: 3.21 µM (inactive)
GI50 [50]: 9.16 µM (inactive)
GI50 [51]: 5.55 µM (inactive)
GI50 [52]: 1.85 µM (inactive)
GI50 [53]: 2.84 µM (inactive)
GI50 [54]: 1.77 µM (inactive)
GI50 [55]: 3.87 µM (inactive)
GI50 [56]: 2.46 µM (inactive)
GI50 [57]: 3.61 µM (inactive)
GI50 [58]: 2.56 µM (inactive)
GI50 [59]: 4.68 µM (inactive)
